The values that follow are results of earlier work, collected in publication PMC9820430, “New Affordable Methods for Large-Scale Isolation of Major Olive Secoiridoids and Systematic Comparative Study of Their Antiproliferative/Cytotoxic Effect on Multiple Cancer Cell Lines of Different Cancer Origins” (International Journal of Molecular Sciences, 2022).

The term EC50 denotes the concentration at which the effect is half-maximal.

The test system of this series is MCF-7/TR (tamoxifen-resistant). Set-up: method as in Mazzei et al. (2020) 27. The conditions noted are these: ref Mazzei et al. (2020) 27; cited from earlier work.

Consider `COC(=O)C1=COC(C)[C@@H](C=O)[C@@H]1CC(=O)OCCc1ccc(O)c(O)c1` (mixture of isomers) [3a,b, oleuropein aglycone], for which the EC50 was 70 µM.
